According to ChEMBL document CHEMBL1201862, “PubChem BioAssay data set” (2004):
Activity calls are given as the source filed them.

Columns and labels:
[1] = target: T1, Heat shock factor protein 1 (Mus musculus, UniProt P38532); assay: enhancement of HSF1-driven luciferase signal – cell-based, NIH3T3, luminescence, dose retest, confirmation (AID 435004); type: functional;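 also: stress induced by proteasome inhibitor MG132 added 30 min after compound; luciferase reporter driven by HSF1 response element in NIH3T3 cells; actives raise luminescence as potentiators of the MG132 stress response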
T1 sequence (P38532 whole entry): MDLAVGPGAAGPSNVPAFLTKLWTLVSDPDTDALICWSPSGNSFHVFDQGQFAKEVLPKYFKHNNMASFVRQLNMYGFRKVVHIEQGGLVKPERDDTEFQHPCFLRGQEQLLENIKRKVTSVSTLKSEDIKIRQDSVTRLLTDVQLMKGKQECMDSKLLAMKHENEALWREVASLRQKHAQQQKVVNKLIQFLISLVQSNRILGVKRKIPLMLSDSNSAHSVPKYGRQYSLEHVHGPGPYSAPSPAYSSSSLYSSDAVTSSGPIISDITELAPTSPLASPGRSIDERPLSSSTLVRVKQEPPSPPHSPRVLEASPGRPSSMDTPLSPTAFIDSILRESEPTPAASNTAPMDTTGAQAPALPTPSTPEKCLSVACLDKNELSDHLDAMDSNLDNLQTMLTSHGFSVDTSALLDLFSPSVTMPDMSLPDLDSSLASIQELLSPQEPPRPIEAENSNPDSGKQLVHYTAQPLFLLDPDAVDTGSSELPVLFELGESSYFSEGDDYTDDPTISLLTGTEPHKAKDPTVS

[2] = target: T2, Histone-lysine N-methyltransferase NSD2 (Homo sapiens, UniProt O96028); type: biochemical
T2 sequence (O96028 whole entry): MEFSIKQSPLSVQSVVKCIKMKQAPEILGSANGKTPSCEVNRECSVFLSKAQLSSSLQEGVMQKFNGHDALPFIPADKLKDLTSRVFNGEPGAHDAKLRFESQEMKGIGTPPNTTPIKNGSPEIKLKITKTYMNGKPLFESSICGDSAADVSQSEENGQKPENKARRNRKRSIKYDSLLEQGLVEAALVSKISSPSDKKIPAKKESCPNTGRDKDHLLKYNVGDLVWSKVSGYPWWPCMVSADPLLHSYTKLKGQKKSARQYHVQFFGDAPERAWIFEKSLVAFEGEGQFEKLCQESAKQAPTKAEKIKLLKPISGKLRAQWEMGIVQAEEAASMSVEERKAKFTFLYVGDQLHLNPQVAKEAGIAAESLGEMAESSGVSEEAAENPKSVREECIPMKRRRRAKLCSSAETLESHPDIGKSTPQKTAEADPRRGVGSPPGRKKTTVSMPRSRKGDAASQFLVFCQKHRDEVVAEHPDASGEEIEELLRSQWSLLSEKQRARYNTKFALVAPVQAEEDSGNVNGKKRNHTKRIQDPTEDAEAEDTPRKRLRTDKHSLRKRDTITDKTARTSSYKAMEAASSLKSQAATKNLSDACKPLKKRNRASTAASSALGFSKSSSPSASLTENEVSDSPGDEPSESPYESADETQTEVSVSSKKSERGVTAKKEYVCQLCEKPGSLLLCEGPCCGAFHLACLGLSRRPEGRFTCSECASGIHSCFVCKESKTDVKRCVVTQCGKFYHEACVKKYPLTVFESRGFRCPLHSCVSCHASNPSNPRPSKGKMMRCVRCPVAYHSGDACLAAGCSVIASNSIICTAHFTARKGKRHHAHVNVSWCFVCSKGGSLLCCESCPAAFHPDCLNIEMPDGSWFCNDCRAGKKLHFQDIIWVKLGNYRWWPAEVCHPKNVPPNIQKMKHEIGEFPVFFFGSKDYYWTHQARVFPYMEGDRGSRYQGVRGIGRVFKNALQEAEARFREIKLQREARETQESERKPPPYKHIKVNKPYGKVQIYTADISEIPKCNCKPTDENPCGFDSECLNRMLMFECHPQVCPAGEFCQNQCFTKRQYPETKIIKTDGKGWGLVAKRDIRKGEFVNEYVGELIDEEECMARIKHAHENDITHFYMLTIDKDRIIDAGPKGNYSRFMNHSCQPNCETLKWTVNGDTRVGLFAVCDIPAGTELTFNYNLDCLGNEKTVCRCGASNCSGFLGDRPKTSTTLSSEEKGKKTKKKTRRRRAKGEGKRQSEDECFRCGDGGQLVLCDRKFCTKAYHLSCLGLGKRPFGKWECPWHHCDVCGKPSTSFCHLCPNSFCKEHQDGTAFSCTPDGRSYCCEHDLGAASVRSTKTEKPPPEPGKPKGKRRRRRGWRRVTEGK

[3] = target: T3, RNA-binding protein pos-1 (Caenorhabditis elegans, UniProt G5EF15); assay: disruptors of C. elegans POS-1 RNA interaction – biochemical, fluorescence polarization, dose response (AID 1964);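 also: purified POS-1 fused to maltose binding protein made in E. coli; potency of compounds blocking POS-1 binding to fluorescent RNA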
T3 sequence (G5EF15 whole entry): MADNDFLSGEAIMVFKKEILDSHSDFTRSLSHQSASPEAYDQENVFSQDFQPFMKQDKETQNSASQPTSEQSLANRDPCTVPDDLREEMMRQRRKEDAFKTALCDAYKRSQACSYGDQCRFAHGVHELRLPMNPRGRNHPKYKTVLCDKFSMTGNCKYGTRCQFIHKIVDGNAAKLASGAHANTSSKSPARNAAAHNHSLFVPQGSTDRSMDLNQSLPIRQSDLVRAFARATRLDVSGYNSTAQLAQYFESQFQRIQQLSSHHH

[4] = target: T4, Zinc finger protein mex-5 (Caenorhabditis elegans, UniProt Q9XUB2); assay: potency of MEX-5 RNA-binding blockers – biochemical, C. elegans, fluorescence polarization, dose response (AID 1960)
T4 sequence (Q9XUB2 whole entry): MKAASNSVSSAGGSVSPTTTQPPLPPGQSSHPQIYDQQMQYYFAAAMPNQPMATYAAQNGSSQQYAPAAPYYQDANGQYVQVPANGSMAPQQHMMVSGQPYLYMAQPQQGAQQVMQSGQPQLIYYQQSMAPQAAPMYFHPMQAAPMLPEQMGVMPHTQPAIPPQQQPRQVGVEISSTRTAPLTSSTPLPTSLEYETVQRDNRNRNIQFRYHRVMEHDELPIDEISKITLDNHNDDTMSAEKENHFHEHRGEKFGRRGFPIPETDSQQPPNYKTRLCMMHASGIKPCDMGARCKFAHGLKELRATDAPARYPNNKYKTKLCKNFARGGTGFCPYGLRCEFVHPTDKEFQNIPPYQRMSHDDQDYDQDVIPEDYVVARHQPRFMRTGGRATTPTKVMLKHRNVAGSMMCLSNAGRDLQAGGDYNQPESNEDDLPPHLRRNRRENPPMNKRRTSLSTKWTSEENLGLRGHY

[5] = target: T5, Polyadenylate-binding protein 1 (Homo sapiens, UniProt P11940); assay: MLLE binding blockers, Cy5 peptide tracer – biochemical, fluorescence polarization, Cy5-PAM2 peptide, secondary, miRNA deadenylation inhibitor project, dose response (AID 602260); type: functional; conditions: read-out: IC50_Mean
T5 sequence (P11940 whole entry, the tested form may be a part): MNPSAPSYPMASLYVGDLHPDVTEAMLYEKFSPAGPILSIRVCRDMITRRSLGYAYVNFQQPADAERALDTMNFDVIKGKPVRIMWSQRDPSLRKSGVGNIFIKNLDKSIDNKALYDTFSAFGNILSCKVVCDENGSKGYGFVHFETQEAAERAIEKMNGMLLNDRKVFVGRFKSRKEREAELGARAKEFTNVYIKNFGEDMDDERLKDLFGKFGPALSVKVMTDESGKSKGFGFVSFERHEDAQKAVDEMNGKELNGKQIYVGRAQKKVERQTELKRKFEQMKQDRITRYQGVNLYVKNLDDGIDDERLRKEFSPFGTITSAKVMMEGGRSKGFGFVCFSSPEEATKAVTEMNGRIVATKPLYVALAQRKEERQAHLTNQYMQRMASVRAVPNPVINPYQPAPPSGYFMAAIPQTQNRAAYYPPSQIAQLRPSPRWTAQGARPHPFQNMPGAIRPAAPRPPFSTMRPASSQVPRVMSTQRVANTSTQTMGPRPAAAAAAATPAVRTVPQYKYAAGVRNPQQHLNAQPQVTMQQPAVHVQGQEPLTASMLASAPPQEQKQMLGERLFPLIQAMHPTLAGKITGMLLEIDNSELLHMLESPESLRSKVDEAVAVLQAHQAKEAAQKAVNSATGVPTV

[6] = target: T5, Polyadenylate-binding protein 1; assay: MLLE domain peptide-binding blockers, IC50 – biochemical, fluorescence polarization, FITC-PAM2 peptide, dose response (AID 602259); type: functional; conditions: read-out: IC50_Mean
[7] = target: T6, Ubiquitin-conjugating enzyme E2 N (Homo sapiens, UniProt P61088); type: functional;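 also: Dose-response confirmation in a TR-FRET assay detecting UBC13-driven polyubiquitin chain formation, inhibition measured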
T6 sequence (P61088 whole entry): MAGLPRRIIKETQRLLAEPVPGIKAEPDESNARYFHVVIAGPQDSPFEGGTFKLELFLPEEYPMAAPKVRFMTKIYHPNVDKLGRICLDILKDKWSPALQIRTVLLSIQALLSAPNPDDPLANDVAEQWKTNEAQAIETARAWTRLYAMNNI

[8] = blockers of bursicon-stimulated LGR2 cAMP reporter – cell-based, HEK293, CRE-luciferase reporter, cherry pick, set 2, dose response (AID 743343); type: functional;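 also: transfected cells were stimulated with diluted bursicon conditioned medium after compound addition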
[9] = target: T1, Heat shock factor protein 1; assay: decrease of HSF1-responsive luciferase luminescence – cell-based, NIH3T3, dose retest, confirmation (AID 2382); type: functional;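 also: NIH3T3 fibroblasts with HSF1-driven luciferase reporter stressed by proteasome inhibitor MG132; luminescence from HSF1-driven luciferase expression after 8 hours of MG132 stress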
[10] = Luminescence Cell-Based Dose Response HTS to Identify Inhibitors of 5'UTR Stem-Loop Driven Prion Protein mRNA Translation in H4 Neuroglioblastoma Cells. [Related pubchem assays: 1827 (Project Summary), 1813 (Primary HTS)]; type: functional
[11] = alpha-synuclein stem-loop luciferase translation blockers – H4 neuroglioma cells, luminescence, confirmation (AID 1988); type: functional, cell-based
HEK293 = assay: EBV LMP1 TES2 canonical NF-kB signalling blockers – cell-based, HEK293, luciferase, cherry-pick, dose response (AID 588343); type: functional; conditions: Homo sapiens
[12] = target: T7, Rac GTPase-activating protein 1 (Homo sapiens, UniProt Q9H0H5); assay: blockers of MgcRacGAP-driven Rac1 GTP hydrolysis – biochemical, ADP Hunter fluorescence, primary and confirmatory, confirmation (AID 624330); type: functional
T7 sequence (Q9H0H5 whole entry): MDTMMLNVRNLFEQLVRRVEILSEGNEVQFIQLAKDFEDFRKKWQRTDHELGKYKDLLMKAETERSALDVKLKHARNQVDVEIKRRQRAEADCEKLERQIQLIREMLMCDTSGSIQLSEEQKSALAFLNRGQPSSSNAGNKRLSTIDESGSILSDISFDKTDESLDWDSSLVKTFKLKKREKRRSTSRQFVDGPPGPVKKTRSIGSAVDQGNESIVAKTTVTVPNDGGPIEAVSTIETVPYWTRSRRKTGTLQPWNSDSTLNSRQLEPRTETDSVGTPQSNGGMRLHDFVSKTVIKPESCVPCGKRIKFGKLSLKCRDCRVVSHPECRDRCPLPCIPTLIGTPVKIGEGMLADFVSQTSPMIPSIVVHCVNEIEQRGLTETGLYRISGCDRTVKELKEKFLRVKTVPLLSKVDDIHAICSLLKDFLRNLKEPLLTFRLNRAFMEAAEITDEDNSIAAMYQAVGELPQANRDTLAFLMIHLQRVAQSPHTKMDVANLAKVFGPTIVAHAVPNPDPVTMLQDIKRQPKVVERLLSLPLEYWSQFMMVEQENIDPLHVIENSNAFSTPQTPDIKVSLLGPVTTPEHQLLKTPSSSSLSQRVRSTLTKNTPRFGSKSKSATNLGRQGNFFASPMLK

[13] = blockers of HIV-1 envelope-mediated cell-cell fusion – cherry-pick, dose response (AID 652057); type: functional, cell-based
[14] = HIV-1 AD8 envelope cell-cell fusion blockers – cherry-pick, dose response (AID 652062); type: functional, cell-based;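 also: luciferase signal from cell-cell fusion driven by HIV-1 clade B AD8 Env; potency is for inhibitors of fusion seen as a drop in luminescence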
[15] = growth inhibition of yeast DHODH-expressing 3D7 parasites – SYBR Green, dry powder samples, dose response (AID 1159570); type: functional, cell-based;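 also: parasite growth measured after 72 hours of compound exposure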
[16] = P. falciparum Dd2 growth inhibitors, dose response, SYBR Green, cherry-picked samples (AID 1159567); type: functional, cell-based
[17] = Dd2 malaria parasite growth inhibition potency – SYBR Green, dry powder samples, dose response (AID 1159566); type: functional, cell-based;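 also: potency for growth inhibition with lower SYBR green DNA signal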
[18] = growth inhibition of PfATP4-mutant resistant parasites – NITD609-resistant line, SYBR Green, dry powder, dose response (AID 1159571); type: functional, cell-based;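 also: parasites synchronized at ring stage by sorbitol before testing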

## CCN(CC)CCCn1c(=S)[nH]c2ncccc2c1=O
[1]
  EC50: > 260 µM (inactive)
[2]
  AC50: 9.8 µM (active)

## COc1ccc(NC(=O)Nc2ccc(OCc3ccccc3)cc2)cn1
[3]
  EC50: 29.2 µM (active)
[4]
  EC50: 17.9 µM (active)
[5]
  IC50: > 66 µM (inactive)
[6]
  IC50: 20 µM (active)

## CC(C)SC1=NSC2=NC(=O)/C(=C\c3c[nH]c4ccccc34)C(=N)N21
[3]
  EC50: 18.6 µM (active)
[4]
  EC50: > 300 µM (not active)

## NCCCC[C@@H]1NC(=O)c2cc([N+](=O)[O-])cc(F)c2NCCCC[C@@H](C(N)=O)NC(=O)CNC1=O
[7]
  IC50: > 20 µM (inactive)

## COc1ccc(OC)c(C2Nc3c(Cl)ccc(C(=O)O)c3C3C=CCC32)c1 (stereo unspecified)
[3]
  EC50: > 300 µM (not active)
[4]
  EC50: 40.7 µM (active)

## O=C(CC1CS(=O)(=O)CC1CC(=O)Nc1ccc2c(c1)OCCO2)Nc1ccc2c(c1)OCCO2 (stereo unspecified)
[8]
  AC50: 45.8 µM (active)

## CC1CCCN(c2nc3ccccc3nc2C(C#N)S(=O)(=O)c2cccs2)C1 (stereo unspecified)
[3]
  EC50: 7.02 µM (inconclusive)
[4]
  EC50: 11.2 µM (inconclusive)
[5]
  IC50: > 66 µM (inactive)
[6]
  IC50: > 66 µM (inactive)

## Cc1cc(C)nc(NS(=O)(=O)c2ccc(-n3cccc3)cc2)n1
[9]
  EC50: > 195 µM (not active)
[2]
  AC50: > 20 µM (inactive)

## Cc1nc(C)c(C(=O)Nc2ncc([N+](=O)[O-])s2)o1
[10]
  EC50: 10.2 µM (inconclusive)
[11]
  EC50: 8.92 µM (inconclusive)
HEK293
  AC50: 3.12 µM (active)
[2]
  AC50: > 20 µM (inactive)

## CC(C)Cn1cc(C(=O)NCCCN2CCC(C)CC2)c2c3ccccc3n(C)c2c1=O
[7]
  IC50: > 20 µM (inactive)

## CN(c1ccc(O)cc1)c1ccc([N+](=O)[O-])c2nonc12
[12]
  IC50: 135 µM (active)
[2]
  AC50: > 20 µM (inactive)

## CC(C)COC(=O)N(C)C[C@H]1OCc2ccccc2-c2c(n(C)c3ccccc23)C(=O)N([C@H](C)CO)C[C@@H]1C
[13]
  AC50: < 0.26 µM (active)
[14]
  AC50: 0.304 µM (active)

## Cc1ccc(/C=N/Nc2[nH]cnc3ncnc2-3)cc1
[3]
  EC50: > 300 µM (not active)
[4]
  EC50: > 300 µM (inconclusive)

## COc1ccc2c3c([nH]c2c1)[C@H](CO)N(Cc1cccc(F)c1)CC31CCN(Cc2ccccn2)CC1
[15]
  AC50: 0.902 µM (active)
[16]
  AC50: 1.07 µM (active)
[17]
  AC50: 0.906 µM (active)
[18]
  AC50: 0.922 µM (active)

## O=C(C1CCCC1)N1CC2(C1)[C@@H](c1ccccc1)[C@H](CO)N2Cc1ccc(Cl)cc1
[15]
  AC50: 3.13 µM (active)
[16]
  AC50: 1.49 µM (active)
[17]
  AC50: 1.98 µM (active)
[18]
  AC50: 3.62 µM (active)

## COc1ccccc1S(=O)(=O)N(C)C[C@H]1Oc2cc(/C=C/c3ccccc3)ccc2S(=O)(=O)N([C@H](C)CO)C[C@@H]1C
[15]
  AC50: 2.34 µM (active)
[16]
  AC50: 2.43 µM (active)
[17]
  AC50: 1.9 µM (active)
[18]
  AC50: 1.78 µM (active)
